Reference: PubChem BioAssay (NCI)
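Each compound was tested at five concentrations against cells in 96-well plates for 48 hours. GI50: concentration for 50% inhibition of growth. TGI: concentration producing complete growth inhibition.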

What was measured:
Assay in all cases: growth of human tumour cells (NCI), 48 h
KM12 colon = test system: KM12 colon
A549 NSCLC = test system: A549 NSCLC
SK-OV-3 ovarian = test system: SK-OV-3 ovarian
CCRF-CEM leukemia = test system: CCRF-CEM leukemia
PC-3 prostate = test system: PC-3 prostate
NCI-H522 lung = test system: NCI-H522 lung
LOX IMVI melanoma = test system: LOX IMVI melanoma
MALME-3M melanoma = test system: MALME-3M melanoma
UO-31 renal = test system: UO-31 renal
COLO 205 colon = test system: COLO 205 colon
UACC-257 melanoma = test system: UACC-257 melanoma
NCI-H23 lung = test system: NCI-H23 lung
K-562 leukemia = test system: K-562 leukemia
T-47D breast = test system: T-47D breast
OVCAR-4 ovarian = test system: OVCAR-4 ovarian
SK-MEL-28 melanoma = test system: SK-MEL-28 melanoma
MOLT-4 leukemia = test system: MOLT-4 leukemia
SN12C renal = test system: SN12C renal
MDA-MB-231 breast = test system: MDA-MB-231 breast
TK-10 renal = test system: TK-10 renal
NCI/ADR-RES ovarian = test system: NCI/ADR-RES ovarian
HCT-116 colon = test system: HCT-116 colon
786-0 renal = test system: 786-0 renal
DU-145 prostate = test system: DU-145 prostate
SK-MEL-2 melanoma = test system: SK-MEL-2 melanoma
IGROV1 ovarian = test system: IGROV1 ovarian
SF-268 CNS = test system: SF-268 CNS
UACC-62 melanoma = test system: UACC-62 melanoma
U251 CNS = test system: U251 CNS
A498 renal = test system: A498 renal
HT29 colon = test system: HT29 colon
RXF 393 renal = test system: RXF 393 renal
OVCAR-5 ovarian = test system: OVCAR-5 ovarian
SK-MEL-5 melanoma = test system: SK-MEL-5 melanoma
SR leukemia = test system: SR leukemia
BT-549 breast = test system: BT-549 breast
HOP-92 NSCLC = test system: HOP-92 NSCLC
OVCAR-8 ovarian = test system: OVCAR-8 ovarian
NCI-H460 lung = test system: NCI-H460 lung
M14 melanoma = test system: M14 melanoma
NCI-H226 lung = test system: NCI-H226 lung
HL-60(TB) leukemia = test system: HL-60(TB) leukemia
SF-295 CNS = test system: SF-295 CNS
HS 578T breast = test system: HS 578T breast
HOP-62 NSCLC = test system: HOP-62 NSCLC
HCT-15 colon = test system: HCT-15 colon
EKVX NSCLC = test system: EKVX NSCLC
MCF7 breast = test system: MCF7 breast
SNB-19 CNS = test system: SNB-19 CNS
OVCAR-3 ovarian = test system: OVCAR-3 ovarian
CAKI-1 renal = test system: CAKI-1 renal
MDA-MB-435 = test system: MDA-MB-435
SW-620 colon = test system: SW-620 colon
SF-539 CNS = test system: SF-539 CNS
ACHN renal = test system: ACHN renal
HCC-2998 colon = test system: HCC-2998 colon
RPMI-8226 leukemia = test system: RPMI-8226 leukemia
SNB-75 CNS = test system: SNB-75 CNS

COc1ccc2c(c1)=C(C=C1C=CN(O)C=C1)C(=O)N=2
GI50 (KM12 colon): 17.4 µM
TGI (KM12 colon): 41.3 µM
GI50 (A549 NSCLC): 29.8 µM
TGI (A549 NSCLC): > 100 µM
GI50 (SK-OV-3 ovarian): 18.8 µM
TGI (SK-OV-3 ovarian): 54.5 µM
GI50 (CCRF-CEM leukemia): 25.3 µM
TGI (CCRF-CEM leukemia): > 79.1 µM
GI50 (PC-3 prostate): 29.5 µM
TGI (PC-3 prostate): > 100 µM
GI50 (NCI-H522 lung): 20.5 µM
TGI (NCI-H522 lung): 61.6 µM
GI50 (LOX IMVI melanoma): 23.9 µM
TGI (LOX IMVI melanoma): > 67.3 µM
GI50 (MALME-3M melanoma): 24.3 µM
TGI (MALME-3M melanoma): 55.9 µM
GI50 (UO-31 renal): 19.8 µM
TGI (UO-31 renal): > 92.6 µM
GI50 (COLO 205 colon): 3.84 µM
TGI (COLO 205 colon): 32.8 µM
GI50 (UACC-257 melanoma): 44.7 µM
TGI (UACC-257 melanoma): > 100 µM
GI50 (NCI-H23 lung): 23.8 µM
TGI (NCI-H23 lung): 72.3 µM
GI50 (K-562 leukemia): 3.55 µM
TGI (K-562 leukemia): > 100 µM
GI50 (T-47D breast): 6.34 µM
TGI (T-47D breast): > 68.7 µM
GI50 (OVCAR-4 ovarian): 9.96 µM
TGI (OVCAR-4 ovarian): > 100 µM
GI50 (SK-MEL-28 melanoma): 27 µM
TGI (SK-MEL-28 melanoma): > 100 µM
GI50 (MOLT-4 leukemia): 31.2 µM
TGI (MOLT-4 leukemia): > 100 µM
GI50 (SN12C renal): 22.1 µM
TGI (SN12C renal): 59.2 µM
GI50 (MDA-MB-231 breast): 23.6 µM
TGI (MDA-MB-231 breast): > 100 µM
GI50 (TK-10 renal): 36.3 µM
TGI (TK-10 renal): > 90.5 µM
GI50 (NCI/ADR-RES ovarian): 30.3 µM
TGI (NCI/ADR-RES ovarian): > 86.9 µM
GI50 (HCT-116 colon): 28.9 µM
TGI (HCT-116 colon): > 100 µM
GI50 (786-0 renal): 31 µM
TGI (786-0 renal): > 92.3 µM
GI50 (DU-145 prostate): 32.5 µM
TGI (DU-145 prostate): > 100 µM
GI50 (SK-MEL-2 melanoma): 26.7 µM
TGI (SK-MEL-2 melanoma): 73.7 µM
GI50 (IGROV1 ovarian): 16.2 µM
TGI (IGROV1 ovarian): > 94.4 µM
GI50 (SF-268 CNS): 28.1 µM
TGI (SF-268 CNS): 93.2 µM
GI50 (UACC-62 melanoma): 26.3 µM
TGI (UACC-62 melanoma): 86.1 µM
GI50 (U251 CNS): 27.3 µM
TGI (U251 CNS): > 100 µM
GI50 (A498 renal): 19.7 µM
TGI (A498 renal): > 73.2 µM
GI50 (HT29 colon): 17.1 µM
TGI (HT29 colon): > 66.8 µM
GI50 (RXF 393 renal): 33.9 µM
TGI (RXF 393 renal): 98.3 µM
GI50 (OVCAR-5 ovarian): 12.7 µM
TGI (OVCAR-5 ovarian): 50.8 µM
GI50 (SK-MEL-5 melanoma): 22.8 µM
TGI (SK-MEL-5 melanoma): 63.9 µM
GI50 (SR leukemia): 18.2 µM
TGI (SR leukemia): > 100 µM
GI50 (BT-549 breast): 22.6 µM
TGI (BT-549 breast): 88.1 µM
GI50 (HOP-92 NSCLC): 25.9 µM
TGI (HOP-92 NSCLC): > 100 µM
GI50 (OVCAR-8 ovarian): 29.9 µM
TGI (OVCAR-8 ovarian): 99.7 µM
GI50 (NCI-H460 lung): > 50.1 µM
TGI (NCI-H460 lung): > 88.3 µM
GI50 (M14 melanoma): 24.6 µM
TGI (M14 melanoma): 65.9 µM
GI50 (NCI-H226 lung): 25.7 µM
TGI (NCI-H226 lung): 97.5 µM
GI50 (HL-60(TB) leukemia): 22.4 µM
TGI (HL-60(TB) leukemia): 49.9 µM
GI50 (SF-295 CNS): 34.3 µM
TGI (SF-295 CNS): > 93.8 µM
GI50 (HS 578T breast): 32.1 µM
TGI (HS 578T breast): > 86.3 µM
GI50 (HOP-62 NSCLC): 40.2 µM
TGI (HOP-62 NSCLC): > 100 µM
GI50 (HCT-15 colon): 25 µM
TGI (HCT-15 colon): > 75.9 µM
GI50 (EKVX NSCLC): 43.9 µM
TGI (EKVX NSCLC): > 100 µM
GI50 (MCF7 breast): 20.9 µM
TGI (MCF7 breast): > 100 µM
GI50 (SNB-19 CNS): 10.6 µM
TGI (SNB-19 CNS): 64.8 µM
GI50 (OVCAR-3 ovarian): 26.2 µM
TGI (OVCAR-3 ovarian): > 78.1 µM
GI50 (CAKI-1 renal): 28.2 µM
TGI (CAKI-1 renal): > 89.6 µM
GI50 (MDA-MB-435): 35 µM
TGI (MDA-MB-435): > 89.6 µM
GI50 (SW-620 colon): 25.5 µM
TGI (SW-620 colon): > 67.8 µM
GI50 (SF-539 CNS): 28.8 µM
TGI (SF-539 CNS): > 65.8 µM
GI50 (ACHN renal): 23.5 µM
TGI (ACHN renal): > 100 µM
GI50 (HCC-2998 colon): 21.8 µM
TGI (HCC-2998 colon): 47 µM
GI50 (RPMI-8226 leukemia): 24.1 µM
TGI (RPMI-8226 leukemia): > 67.7 µM
GI50 (SNB-75 CNS): 15.6 µM
TGI (SNB-75 CNS): > 88.4 µM
